“And” between values parts separate entries of the source, which are not always exact repeats. Equal values may be shown once. Each block holds one compound with its values, some of them ahead of it.
Test system: NCI-H196 complex spheroid growth, percent test/control
Test: Anticancer human tumor NCI-H196 cell line growth inhibition [AhR];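 note: seven days of drug exposure starting three days after plating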;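 for viability, T/C: 100% = DMSO vehicle control wells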
Conditions: for viability, T/C: stronger effect = lower value
Method in brief: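 Spheroids combined tumor cells with HUVEC endothelial cells and human MSCs as stroma. AhR antagonists were paired with standard or investigational drugs, each dosed in half-log steps down from near clinical Cmax, or from 10 microM where Cmax was unknown.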

[1] = curve of first compound, second compound 0.1 µM
[2] = curve of first compound, second compound 0.316 µM
[3] = curve of first compound, second compound 1 µM
[4] = curve of first compound, second compound 3.16 µM
[5] = curve of first compound, second compound 10 µM
[6] = second compound 0.1 µM, first compound 0.000316 µM
[7] = second compound 0.1 µM, first compound 0.001 µM
[8] = second compound 0.1 µM, first compound 0.00316 µM
[9] = second compound 0.1 µM, first compound 0.01 µM
[10] = second compound 0.1 µM, first compound 0.0316 µM
[11] = second compound 0.1 µM, first compound 0.1 µM
[12] = second compound 0.316 µM, first compound 0.000316 µM
[13] = second compound 0.316 µM, first compound 0.001 µM
[14] = second compound 0.316 µM, first compound 0.00316 µM
[15] = second compound 0.316 µM, first compound 0.01 µM
[16] = second compound 0.316 µM, first compound 0.0316 µM
[17] = second compound 0.316 µM, first compound 0.1 µM
[18] = second compound 1 µM, first compound 0.000316 µM
[19] = second compound 1 µM, first compound 0.001 µM
[20] = second compound 1 µM, first compound 0.00316 µM
[21] = second compound 1 µM, first compound 0.01 µM
[22] = second compound 1 µM, first compound 0.0316 µM
[23] = second compound 1 µM, first compound 0.1 µM
[24] = second compound 3.16 µM, first compound 0.000316 µM
[25] = second compound 3.16 µM, first compound 0.001 µM
[26] = second compound 3.16 µM, first compound 0.00316 µM
[27] = second compound 3.16 µM, first compound 0.01 µM
[28] = second compound 3.16 µM, first compound 0.0316 µM
[29] = second compound 3.16 µM, first compound 0.1 µM
[30] = second compound 10 µM, first compound 0.000316 µM
[31] = second compound 10 µM, first compound 0.001 µM
[32] = second compound 10 µM, first compound 0.00316 µM
[33] = second compound 10 µM, first compound 0.01 µM
[34] = second compound 10 µM, first compound 0.0316 µM
[35] = second compound 10 µM, first compound 0.1 µM
[36] = second compound 0.1 µM, first compound 0.000949 µM
[37] = second compound 0.1 µM, first compound 0.003 µM
[38] = second compound 0.1 µM, first compound 0.00949 µM
[39] = second compound 0.1 µM, first compound 0.03 µM
[40] = second compound 0.1 µM, first compound 0.0949 µM
[41] = second compound 0.1 µM, first compound 0.3 µM
[42] = second compound 0.316 µM, first compound 0.000949 µM
[43] = second compound 0.316 µM, first compound 0.003 µM
[44] = second compound 0.316 µM, first compound 0.00949 µM
[45] = second compound 0.316 µM, first compound 0.03 µM
[46] = second compound 0.316 µM, first compound 0.0949 µM
[47] = second compound 0.316 µM, first compound 0.3 µM
[48] = second compound 1 µM, first compound 0.000949 µM
[49] = second compound 1 µM, first compound 0.003 µM
[50] = second compound 1 µM, first compound 0.00949 µM
[51] = second compound 1 µM, first compound 0.03 µM
[52] = second compound 1 µM, first compound 0.0949 µM
[53] = second compound 1 µM, first compound 0.3 µM
[54] = second compound 3.16 µM, first compound 0.000949 µM
[55] = second compound 3.16 µM, first compound 0.003 µM
[56] = second compound 3.16 µM, first compound 0.00949 µM
[57] = second compound 3.16 µM, first compound 0.03 µM
[58] = second compound 3.16 µM, first compound 0.0949 µM
[59] = second compound 3.16 µM, first compound 0.3 µM
[60] = second compound 10 µM, first compound 0.000949 µM
[61] = second compound 10 µM, first compound 0.003 µM
[62] = second compound 10 µM, first compound 0.00949 µM
[63] = second compound 10 µM, first compound 0.03 µM
[64] = second compound 10 µM, first compound 0.0949 µM
[65] = second compound 10 µM, first compound 0.3 µM

Structure (SMILES): CC[C@@]1(O)C(=O)OCc2c1cc1n(c2=O)Cc2cc3c(CN(C)C)c(O)ccc3nc2-1 + CC(CO)NC(=O)c1cc(-c2ccc(Cl)cc2)nn(-c2cnn(C)c2)c1=O
IC50 [1]: > 0.1 µM
IC50 [2]: > 0.1 µM
IC50 [3]: > 0.1 µM
IC50 [4]: > 0.1 µM
IC50 [5]: > 0.1 µM
viability, T/C [6]: 104%
viability, T/C [7]: 101%
viability, T/C [8]: 97.8%
viability, T/C [9]: 97%
viability, T/C [10]: 111%
viability, T/C [11]: 119%
viability, T/C [12]: 111%
viability, T/C [13]: 110%
viability, T/C [14]: 105%
viability, T/C [15]: 105%
viability, T/C [16]: 111%
viability, T/C [17]: 129%
viability, T/C [18]: 98.6%
viability, T/C [19]: 108%
viability, T/C [20]: 116%
viability, T/C [21]: 100%
viability, T/C [22]: 113%
viability, T/C [23]: 119%
viability, T/C [24]: 110%
viability, T/C [25]: 111%
viability, T/C [26]: 114%
viability, T/C [27]: 96.8%
viability, T/C [28]: 120%
viability, T/C [29]: 118%
viability, T/C [30]: 111%
viability, T/C [31]: 112%
viability, T/C [32]: 116%
viability, T/C [33]: 103%
viability, T/C [34]: 113%
viability, T/C [35]: 124%

Structure (SMILES): O=C(c1cc(Cc2n[nH]c(=O)c3ccccc23)ccc1F)N1CCN(C(=O)C2CC2)CC1
viability, T/C (compound 0.0316 µM): 106% and 105% and 100%
viability, T/C (compound 0.1 µM): 105% and 112% and 108%
viability, T/C (compound 0.316 µM): 99.7% and 98.5% and 104%
viability, T/C (compound 1 µM): 97.2% and 98.1% and 105%
viability, T/C (compound 3.16 µM): 97.2% and 96.9% and 99.9%
viability, T/C (compound 10 µM): 99.7% and 103% and 99.5%
IC50 (curve of compound): > 10 µM

Structure (SMILES): CC[C@@]1(O)C(=O)OCc2c1cc1n(c2=O)Cc2cc3c(CN(C)C)c(O)ccc3nc2-1
viability, T/C (compound 0.000316 µM): 105% and 99.9% and 103%
viability, T/C (compound 0.001 µM): 110% and 104% and 107%
viability, T/C (compound 0.00316 µM): 89.1% and 98% and 101%
viability, T/C (compound 0.01 µM): 101% and 94% and 103%
viability, T/C (compound 0.0316 µM): 116% and 105% and 106%
viability, T/C (compound 0.1 µM): 108% and 101% and 104%
IC50 (curve of compound): > 0.1 µM

Structure (SMILES): CCc1c2c(nc3ccc(O)cc13)-c1cc3c(c(=O)n1C2)COC(=O)[C@]3(O)CC + Cc1ccccc1N=Nc1ccc(NC(=O)c2ccnn2C)c(C)c1
IC50 [1]: > 0.3 µM
IC50 [2]: > 0.3 µM
IC50 [3]: > 0.3 µM
IC50 [4]: > 0.3 µM
IC50 [5]: > 0.3 µM
viability, T/C [36]: 97%
viability, T/C [37]: 101%
viability, T/C [38]: 103%
viability, T/C [39]: 95.3%
viability, T/C [40]: 93.3%
viability, T/C [41]: 81.2%
viability, T/C [42]: 96.3%
viability, T/C [43]: 103%
viability, T/C [44]: 106%
viability, T/C [45]: 89.7%
viability, T/C [46]: 89.2%
viability, T/C [47]: 85.2%
viability, T/C [48]: 89.8%
viability, T/C [49]: 106%
viability, T/C [50]: 93.8%
viability, T/C [51]: 100%
viability, T/C [52]: 99.2%
viability, T/C [53]: 70.7%
viability, T/C [54]: 89.4%
viability, T/C [55]: 91.3%
viability, T/C [56]: 103%
viability, T/C [57]: 88.9%
viability, T/C [58]: 82.7%
viability, T/C [59]: 74.3%
viability, T/C [60]: 89%
viability, T/C [61]: 108%
viability, T/C [62]: 93.3%
viability, T/C [63]: 94.9%
viability, T/C [64]: 96%
viability, T/C [65]: 76.1%

Further lines, with some results ahead:

IC50 [1]: > 0.3 µM
IC50 [2]: > 0.3 µM
IC50 [3]: > 0.3 µM
IC50 [4]: > 0.3 µM
IC50 [5]: > 0.3 µM
Structure (SMILES): Nc1ncn(C2CC(O)C(CO)S2)c(=O)n1 (centres undefined) + CC(CO)NC(=O)c1cc(-c2ccc(Cl)cc2)nn(-c2cnn(C)c2)c1=O
viability, T/C [36]: 104%
viability, T/C [37]: 94.2%
viability, T/C [38]: 103%
viability, T/C [39]: 108%
viability, T/C [40]: 116%
viability, T/C [41]: 103%
viability, T/C [42]: 105%
viability, T/C [43]: 104%
viability, T/C [44]: 94.2%
viability, T/C [45]: 101%
viability, T/C [46]: 113%
viability, T/C [47]: 105%
viability, T/C [48]: 107%
viability, T/C [49]: 104%
viability, T/C [50]: 112%
viability, T/C [51]: 110%
viability, T/C [52]: 112%
viability, T/C [53]: 118%
viability, T/C [54]: 106%
viability, T/C [55]: 101%
viability, T/C [56]: 110%
viability, T/C [57]: 114%
viability, T/C [58]: 120%
viability, T/C [59]: 127%
viability, T/C [60]: 108%
viability, T/C [61]: 116%
viability, T/C [62]: 118%
viability, T/C [63]: 114%
viability, T/C [64]: 111%
viability, T/C [65]: 112%

IC50 [1]: > 3 µM
IC50 [2]: > 3 µM
IC50 [3]: > 3 µM
IC50 [4]: > 3 µM
IC50 [5]: > 3 µM
Structure (SMILES): CCN(c1cc(-c2ccc(CN3CCOCC3)cc2)cc(C(=O)NCc2c(C)cc(C)[nH]c2=O)c1C)C1CCOCC1 + Cc1ccccc1N=Nc1ccc(NC(=O)c2ccnn2C)c(C)c1
viability, T/C [38]: 95%
viability, T/C [39]: 104%
viability, T/C [40]: 103%
viability, T/C [41]: 104%
viability, T/C (second compound 0.1 µM, first compound 0.949 µM): 90.2%
viability, T/C (second compound 0.1 µM, first compound 3 µM): 89.6%
viability, T/C [44]: 104%
viability, T/C [45]: 99.2%
viability, T/C [46]: 102%
viability, T/C [47]: 97.3%
viability, T/C (second compound 0.316 µM, first compound 0.949 µM): 94.7%
viability, T/C (second compound 0.316 µM, first compound 3 µM): 96.3%
viability, T/C [50]: 98.6%
viability, T/C [51]: 98.1%
viability, T/C [52]: 111%
viability, T/C [53]: 103%
viability, T/C (second compound 1 µM, first compound 0.949 µM): 101%
viability, T/C (second compound 1 µM, first compound 3 µM): 107%
viability, T/C [56]: 93%
viability, T/C [57]: 103%
viability, T/C [58]: 105%
viability, T/C [59]: 98.1%
viability, T/C (second compound 3.16 µM, first compound 0.949 µM): 93.2%
viability, T/C (second compound 3.16 µM, first compound 3 µM): 96.3%
viability, T/C [62]: 89.9%
viability, T/C [63]: 97.8%
viability, T/C [64]: 92.9%
viability, T/C [65]: 89.7%
viability, T/C (second compound 10 µM, first compound 0.949 µM): 90.1%
viability, T/C (second compound 10 µM, first compound 3 µM): 102%

IC50 [1]: > 0.1 µM
IC50 [2]: > 0.1 µM
IC50 [3]: > 0.1 µM
IC50 [4]: > 0.1 µM
IC50 [5]: > 0.1 µM
Structure (SMILES): Cn1ncnc1C1c2n[nH]c(=O)c3cc(F)cc(c23)NC1c1ccc(F)cc1 (centres undefined) + CC(CO)NC(=O)c1cc(-c2ccc(Cl)cc2)nn(-c2cnn(C)c2)c1=O
viability, T/C [6]: 111%
viability, T/C [7]: 107%
viability, T/C [8]: 103%
viability, T/C [9]: 102%
viability, T/C [10]: 113%
viability, T/C [11]: 103%
viability, T/C [12]: 104%
viability, T/C [13]: 109%
viability, T/C [14]: 102%
viability, T/C [15]: 99.2%
viability, T/C [16]: 101%
viability, T/C [17]: 105%
viability, T/C [18]: 113%
viability, T/C [19]: 112%
viability, T/C [20]: 104%
viability, T/C [21]: 105%
viability, T/C [22]: 114%
viability, T/C [23]: 109%
viability, T/C [24]: 106%
viability, T/C [25]: 119%
viability, T/C [26]: 118%
viability, T/C [27]: 104%
viability, T/C [28]: 103%
viability, T/C [29]: 107%
viability, T/C [30]: 122%
viability, T/C [31]: 111%
viability, T/C [32]: 110%
viability, T/C [33]: 103%
viability, T/C [34]: 108%
viability, T/C [35]: 104%
